Data on 29 compounds can be found in US20100168102A9, “Amide Derivatives as Kinase Inhibitors” (Devgen NV, priority 2005, published 2010).

One experiment concerns the target T1, human ROCKα/ROCKII mix (Homo sapiens, UniProt O75116).
T1 construct: purchased Upstate Biotechnology 14-451
Briefly: Biochemical assay for ROCK (fluorescence polarization, ROCK IMAP Kit). As to conditions: compounds of Formula XIV, Table 3. (In general: In fluorescence polarisation assays a small probe gives low polarisation when free and higher when bound to something large.)

A further experiment deals with T2, PKC epsilon (Homo sapiens, UniProt Q02156).
T2 construct: purchased Invitrogen P2282
T2 sequence (Q02156 1-737): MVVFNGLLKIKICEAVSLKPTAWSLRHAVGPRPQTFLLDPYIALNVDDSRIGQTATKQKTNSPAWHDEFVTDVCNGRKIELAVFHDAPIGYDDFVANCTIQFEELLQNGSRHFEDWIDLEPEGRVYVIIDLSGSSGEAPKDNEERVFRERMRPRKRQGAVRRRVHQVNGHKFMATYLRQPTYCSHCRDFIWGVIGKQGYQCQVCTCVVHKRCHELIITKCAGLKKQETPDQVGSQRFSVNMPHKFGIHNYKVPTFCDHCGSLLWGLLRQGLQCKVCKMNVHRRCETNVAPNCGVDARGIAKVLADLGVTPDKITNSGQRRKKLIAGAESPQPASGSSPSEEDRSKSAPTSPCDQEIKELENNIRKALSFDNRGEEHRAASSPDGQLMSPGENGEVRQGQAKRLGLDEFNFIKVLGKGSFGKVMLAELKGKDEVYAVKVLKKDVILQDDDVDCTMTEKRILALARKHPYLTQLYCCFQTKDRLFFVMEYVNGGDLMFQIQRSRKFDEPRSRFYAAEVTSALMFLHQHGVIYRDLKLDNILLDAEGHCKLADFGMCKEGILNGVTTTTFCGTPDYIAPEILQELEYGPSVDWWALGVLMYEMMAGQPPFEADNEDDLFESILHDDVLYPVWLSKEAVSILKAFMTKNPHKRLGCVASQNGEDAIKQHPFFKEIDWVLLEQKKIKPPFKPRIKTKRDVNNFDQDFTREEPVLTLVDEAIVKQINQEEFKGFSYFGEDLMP
Briefly: Biochemical assay for PKC epsilon (fluorescence polarization, Protein Kinase C Assay Kit, Red). As to conditions: compounds of Formula XIV, Table 3; read-out: IC50 μM PKCε. Summed up: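 PKC epsilon at 10 ng/ml final was preincubated 30 min at room temperature with compound in HEPES pH 7.4 with DTT and Triton X-100. ATP/protein substrate was then added in buffer with MgCl2 and CaCl2 for 80 min. The reaction was stopped with EDTA, phosphorylation was detected by fluorescence polarization with rhodamine tracer and anti-phosphoserine antibody, and IC50 values came from curve fits.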

T1 sequence (O75116 11-552 limits assumed): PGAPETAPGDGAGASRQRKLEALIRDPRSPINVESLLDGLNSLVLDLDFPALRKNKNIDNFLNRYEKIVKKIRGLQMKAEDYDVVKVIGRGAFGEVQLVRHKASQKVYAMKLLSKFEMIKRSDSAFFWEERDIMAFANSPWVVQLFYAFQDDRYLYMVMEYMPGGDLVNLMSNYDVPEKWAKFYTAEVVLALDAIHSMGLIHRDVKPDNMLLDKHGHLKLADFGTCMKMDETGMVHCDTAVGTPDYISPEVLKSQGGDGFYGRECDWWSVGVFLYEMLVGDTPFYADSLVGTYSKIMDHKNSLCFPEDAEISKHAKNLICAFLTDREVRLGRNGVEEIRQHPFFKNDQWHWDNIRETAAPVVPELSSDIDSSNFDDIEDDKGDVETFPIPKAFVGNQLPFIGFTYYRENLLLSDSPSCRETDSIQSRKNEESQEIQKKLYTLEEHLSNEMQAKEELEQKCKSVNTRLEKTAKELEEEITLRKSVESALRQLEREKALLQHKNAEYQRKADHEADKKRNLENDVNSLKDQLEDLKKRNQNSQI

In the case of `NC(CC(=O)NCc1cccc(C(F)(F)F)c1)c1ccc(C(=O)Nc2ccncc2)cc1` (stereo not shown) [Compound 264, 4-[1-Amino-2-(3-trifluoromethyl-benzylcarbamoyl)-ethyl]-N-pyridin-4-yl-benzamide], the figures for the IC50 on human ROCKα/ROCKII mix and on PKC epsilon were 0.05 to 0.5 µM and 0.5 to 5 µM, respectively.
The corresponding values for `NC(CC(=O)NCc1ccc(C(F)(F)F)cc1)c1ccc(C(=O)Nc2ccncc2)cc1` (stereo not shown) [Compound 265, 4-[1-Amino-2-(4-trifluoromethyl-benzylcarbamoyl)-ethyl]-N-pyridin-4-yl-benzamide] are 0.05 to 0.5 µM and 0.5 to 5 µM.
On the same counts, the results for `NC(CC(=O)NCc1ccc(F)c(C(F)(F)F)c1)c1ccc(C(=O)Nc2ccncc2)cc1` (stereo not shown) [Compound 266, 4-[1-Amino-2-(4-fluoro-3-trifluoromethyl-benzylcarbamoyl)-ethyl]-N-pyridin-4-yl-benzamide] are 0.05 to 0.5 µM and 0.5 to 5 µM.
With `NC(CC(=O)NCc1ccc(C(F)(F)F)c(F)c1)c1ccc(C(=O)Nc2ccncc2)cc1` (stereo not shown) [Compound 267, 4-[1-Amino-2-(3-fluoro-4-trifluoromethyl-benzylcarbamoyl)-ethyl]-N-pyridin-4-yl-benzamide], the IC50 against human ROCKα/ROCKII mix was in the range of 0.05 to 0.5 µM; at PKC epsilon, 0.5 to 5 µM.
On the same counts, the results for `NC(CC(=O)NCc1cc(C(F)(F)F)cc(C(F)(F)F)c1)c1ccc(C(=O)Nc2ccncc2)cc1` (stereo not shown) [Compound 268, 4-[1-Amino-2-(3,5-bis-trifluoromethyl-benzylcarbamoyl)-ethyl]-N-pyridin-4-yl-benzamide] are 0.05 to 0.5 µM and 0.5 to 5 µM.
The corresponding values for `NC(CC(=O)NCc1ccccc1OC(F)(F)F)c1ccc(C(=O)Nc2ccncc2)cc1` (stereo not shown) [Compound 269, 4-[1-Amino-2-(2-trifluoromethoxy-benzylcarbamoyl)-ethyl]-N-pyridin-4-yl-benzamide] are 0.05 to 0.5 µM and 0.5 to 5 µM.
The corresponding values for `NC(CC(=O)NCc1cccc(OC(F)(F)F)c1)c1ccc(C(=O)Nc2ccncc2)cc1` (stereo not shown) [Compound 270, 4-[1-Amino-2-(3-trifluoromethoxy-benzylcarbamoyl)-ethyl]-N-pyridin-4-yl-benzamide] are 0.05 to 0.5 µM and 0.5 to 5 µM.
In the case of `NC(CC(=O)NCc1ccc(OC(F)(F)F)cc1)c1ccc(C(=O)Nc2ccncc2)cc1` (stereo not shown) [Compound 271, 4-[1-Amino-2-(4-trifluoromethoxy-benzylcarbamoyl)-ethyl]-N-pyridin-4-yl-benzamide], the IC50 against human ROCKα/ROCKII mix is 0.05 to 0.5 µM; at PKC epsilon it was 0.5 to 5 µM.
On the same counts, the results for `NC(CC(=O)NCc1cccc([N+](=O)[O-])c1)c1ccc(C(=O)Nc2ccncc2)cc1` (stereo not shown) [Compound 272, 4-[1-Amino-2-(3-nitro-benzylcarbamoyl)-ethyl]-N-pyridin-4-yl-benzamide] are 0.05 to 0.5 µM and 0.5 to 5 µM.
Regarding `NC(CC(=O)NCc1ccc([N+](=O)[O-])cc1)c1ccc(C(=O)Nc2ccncc2)cc1` (stereo not shown) [Compound 273, 4-[1-Amino-2-(4-nitro-benzylcarbamoyl)-ethyl]-N-pyridin-4-yl-benzamide], the IC50 at human ROCKα/ROCKII mix is 0.05 to 0.5 µM; at PKC epsilon it was 0.5 to 5 µM.
The corresponding values for `CS(=O)(=O)c1ccc(CNC(=O)CC(N)c2ccc(C(=O)Nc3ccncc3)cc2)cc1` (stereo not shown) [Compound 275, 4-[1-Amino-2-(4-methanesulfonyl-benzylcarbamoyl)-ethyl]-N-pyridin-4-yl-benzamide] are 0.05 to 0.5 µM and 0.5 to 5 µM.
For `NC(CC(=O)NC1Cc2ccccc2C1)c1ccc(C(=O)Nc2ccncc2)cc1` (stereo not shown) [Compound 280, 4-[1-amino-2-(indan-2-ylcarbamoyl)-ethyl]-N-pyridin-4-yl-benzamide], the IC50 against human ROCKα/ROCKII mix lay in the range of 0.05 to 0.5 µM; on PKC epsilon, 0.5 to 5 µM.
`CC(CNC(=O)CC(N)c1ccc(C(=O)Nc2ccncc2)cc1)c1ccccc1` (stereo not shown) [Compound 283, 4-[1-Amino-2-(2-phenyl-propyl-carbamoyl)-ethyl]-N-pyridin-4-yl-benzamide]: the results for the IC50 at human ROCKα/ROCKII mix and at PKC epsilon were 0.05 to 0.5 µM and 0.5 to 5 µM, respectively.
On the same counts, the results for `Cc1ccc(CCNC(=O)CC(N)c2ccc(C(=O)Nc3ccncc3)cc2)cc1` (stereo not shown) [Compound 284, 4-[1-Amino-2-(2-p-tolyl-ethyl-carbamoyl)-ethyl]-N-pyridin-4-yl-benzamide] are 0.05 to 0.5 µM and 5 to 50 µM.
The corresponding values for `CC(C)(C)c1ccc(CCNC(=O)CC(N)c2ccc(C(=O)Nc3ccncc3)cc2)cc1` (stereo not shown) [Compound 285, 4-{1-Amino-2-[2-(4-tert-butyl-phenyl)-ethylcarbamoyl]-ethyl}-N-pyridin-4-yl-benzamide] are 0.05 to 0.5 µM and 5 to 50 µM.
Take `CCOc1ccccc1CCNC(=O)CC(N)c1ccc(C(=O)Nc2ccncc2)cc1` (stereo not shown) [Compound 288, 4-{1-Amino-2-[2-(2-ethoxy-phenyl)-ethylcarbamoyl]-ethyl}-N-pyridin-4-yl-benzamide]: the half-maximal inhibitory concentration (IC50) is 0.05 to 0.5 µM against human ROCKα/ROCKII mix and 0.5 to 5 µM at PKC epsilon.
For the compound `COc1cccc(CCNC(=O)CC(N)c2ccc(C(=O)Nc3ccncc3)cc2)c1` (stereo not shown) [Compound 289, 4-{1-Amino-2-[2-(3-methoxy-phenyl)-ethylcarbamoyl]-ethyl}-N-pyridin-4-yl-benzamide], the figures for the IC50 against human ROCKα/ROCKII mix and at PKC epsilon were 0.05 to 0.5 µM and 0.5 to 5 µM, respectively.
With `CCOc1ccc(CCNC(=O)CC(N)c2ccc(C(=O)Nc3ccncc3)cc2)cc1` (stereo not shown) [Compound 290], the IC50 lay within 0.05 to 0.5 µM against human ROCKα/ROCKII mix and 0.5 to 5 µM at PKC epsilon.
The corresponding values for `COc1ccc(CCNC(=O)CC(N)c2ccc(C(=O)Nc3ccncc3)cc2)cc1` (stereo not shown) [Compound 291, 4-{1-Amino-2-[2-(4-methoxy-phenyl)-ethylcarbamoyl]-ethyl}-N-pyridin-4-yl-benzamide] are 0.05 to 0.5 µM and 0.5 to 5 µM.
Consider `NC(CC(=O)NCCc1ccc(Oc2ccccc2)cc1)c1ccc(C(=O)Nc2ccncc2)cc1` (stereo not shown) [Compound 292, 4-{1-Amino-2-[2-(4-phenoxy-phenyl)-ethylcarbamoyl]-ethyl}-N-pyridin-4-yl-benzamide], for which the IC50 against human ROCKα/ROCKII mix was in the range of 0.05 to 0.5 µM; at PKC epsilon, 0.5 to 5 µM.
The corresponding values for `COc1ccc(CCNC(=O)CC(N)c2ccc(C(=O)Nc3ccncc3)cc2)cc1OC` (stereo not shown) [Compound 293, 4-{1-Amino-2-[2-(3,4-dimethoxy-phenyl)-ethylcarbamoyl]-ethyl}-N-pyridin-4-yl-benzamide] are 0.5 to 5 µM and 5 to 50 µM.
Regarding `COc1cc(CCNC(=O)CC(N)c2ccc(C(=O)Nc3ccncc3)cc2)cc(OC)c1` (stereo not shown) [Compound 294, 4-{1-Amino-2-[2-(3,5-dimethoxy-phenyl)-ethylcarbamoyl]-ethyl}-N-pyridin-4-yl-benzamide], the IC50 fell in the range of 0.05 to 0.5 µM at human ROCKα/ROCKII mix and 5 to 50 µM on PKC epsilon.
With `COc1ccc(OC)c(CCNC(=O)CC(N)c2ccc(C(=O)Nc3ccncc3)cc2)c1` (stereo not shown) [Compound 295, 4-{1-Amino-2-[2-(3,6-dimethoxy-phenyl)-ethylcarbamoyl]-ethyl}-N-pyridin-4-yl-benzamide], the IC50 lay within 0.05 to 0.5 µM at human ROCKα/ROCKII mix and 5 to 50 µM on PKC epsilon.
In the case of `NC(CC(=O)NCCc1ccccc1Cl)c1ccc(C(=O)Nc2ccncc2)cc1` (stereo not shown) [Compound 297, 4-{1-Amino-2-[2-(2-chloro-phenyl)-ethylcarbamoyl]-ethyl}-N-pyridin-4-yl-benzamide], the IC50 on human ROCKα/ROCKII mix lay in the range of 0.05 to 0.5 µM; at PKC epsilon, 0.5 to 5 µM.
`NC(CC(=O)NCCc1cccc(Cl)c1)c1ccc(C(=O)Nc2ccncc2)cc1` (stereo not shown) [Compound 298, 4-{1-Amino-2-[2-(3-chloro-phenyl)-ethylcarbamoyl]-ethyl}-N-pyridin-4-yl-benzamide]: the values for the IC50 against human ROCKα/ROCKII mix and on PKC epsilon were 0.05 to 0.5 µM and 0.5 to 5 µM, respectively.
On the same counts, the results for `NC(CC(=O)NCCc1ccc(Cl)cc1)c1ccc(C(=O)Nc2ccncc2)cc1` (stereo not shown) [Compound 299, 4-{1-Amino-2-[2-(4-chloro-phenyl)-ethylcarbamoyl]-ethyl}-N-pyridin-4-yl-benzamide] are 0.05 to 0.5 µM and 0.5 to 5 µM.
Consider `CC(Cc1ccc(Cl)cc1)NC(=O)CC(N)c1ccc(C(=O)Nc2ccncc2)cc1` (stereo not shown) [Compound 300, 4-{1-Amino-2-(2-(4-chloro-phenyl)-1-methyl-ethylcarbamoyl]-ethyl}-N-pyridin-4-yl-benzamide], for which the IC50 against human ROCKα/ROCKII mix was 0.05 to 0.5 µM; on PKC epsilon, 0.5 to 5 µM.
In the case of `CC(CNC(=O)CC(N)c1ccc(C(=O)Nc2ccncc2)cc1)c1ccc(Cl)cc1` (stereo not shown) [Compound 301, 4-{1-Amino-2-[2-(4-chloro-phenyl)-propylcarbamoyl]-ethyl}-N-pyridin-4-yl-benzamide], the IC50 at human ROCKα/ROCKII mix and on PKC epsilon was 0.05 to 0.5 µM in each case.
As to `NC(CC(=O)NCCc1c(Cl)cccc1Cl)c1ccc(C(=O)Nc2ccncc2)cc1` (stereo not shown) [Compound 302], the IC50 lay in the range of 0.05 to 0.5 µM against human ROCKα/ROCKII mix and 0.5 to 5 µM at PKC epsilon.

As usually defined, the IC50 is the point on the concentration scale where inhibition reaches its midpoint.
